± gives the standard deviation of the averaged measurements.
Tested on: Danio rerio embryo
Assay: benchmark concentration, MalformedAny+Mort@120 (percent of embryos dead or malformed at 120 hpf); higher = less toxic
Details: exposure window: 4-6 to 120 hpf
Experimental: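 Single zebrafish embryos in 96-well plates (200 µL; 0.5% DMSO vehicle) were exposed from about 4–6 hpf to 120 hpf at 7 or more concentrations up to 100 µM or the solubility limit, one plate per replicate. Each lab used its in-house protocol: Lab A used AB embryos in E3 with chorion on and daily renewal; Lab B used Tropical 5D embryos in E2, dechorionated, static; Lab C used AB embryos in E3 with chorion on, static. The percentage of dead or malformed embryos at 120 hpf was fitted per plate (positive control: per week) by bootstrap Curvep to give a benchmark concentration (BMC); inactive substances are set to the highest tested concentration, BMCs at the lowest tested concentration are floors.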

[1] = laboratory protocol: Lab A: static renewal, chorionated (SR-C), AB strain, E3
[2] = laboratory protocol: Lab B: static, dechorionated (S-DC), Tropical 5D strain, E2
[3] = laboratory protocol: Lab C: static, chorionated (S-C), AB strain, E3

SMILES	benchmark concentration [1] [µM]	benchmark concentration [2] [µM]	benchmark concentration [3] [µM]
Cn1c(=O)c2c(ncn2C)n(C)c1=O [Caffeine]	> 100	> 100	–
CC(C)(c1ccc(O)cc1)c1ccc(O)cc1 [Bisphenol A]	13 ± 2.4	38.5 ± 2.8	21.8 ± 12
O=P(Oc1ccccc1)(Oc1ccccc1)Oc1ccccc1 [Triphenyl phosphate]	0.879 ± 0.45	4.35 ± 0.61	30 ± 15
CC(COc1ccc(Oc2ccccc2)cc1)Oc1ccccn1 (stereo not drawn) [Pyriproxyfen]	4.41 ± 1.7	65.4 ± 16	–
c1cc2ccc3cccc4ccc(c1)c2c34 [Pyrene]	3.81 ± 1.2	50.5 ± 25	–
CCCCOC(=O)c1ccccc1C(=O)OCCCC [Dibutyl phthalate]	1.28 ± 0.24	4.16 ± 0.31	38.2 ± 13
C[Si](Cn1cncn1)(c1ccc(F)cc1)c1ccc(F)cc1 [Flusilazole]	1.41 ± 0.027	6.04 ± 1.4	11.6 ± 5.1
O=P(OC(CCl)CCl)(OC(CCl)CCl)OC(CCl)CCl [Tris(1,3-dichloro-2-propyl) phosphate]	2.2 ± 0.24	6.94 ± 2.6	15.9 ± 3.1
NC(=O)NO [Hydroxyurea]	> 100	> 100	–
CCNc1nc(Cl)nc(NC(C)C)n1 [Atrazine]	49 ± 5.9	> 100	> 100
CCCc1cc(=O)[nH]c(=S)[nH]1 [6-Propyl-2-thiouracil]	> 100	> 100	–
CCCCOC(=O)C(C)Oc1ccc(Oc2ccc(C(F)(F)F)cn2)cc1 (stereo not drawn) [Fluazifop-butyl]	2.6 ± 1.5	3.5 ± 1	53.8 ± 10
CC(C)NC(=O)N1CC(=O)N(c2cc(Cl)cc(Cl)c2)C1=O [Iprodione]	11.7 ± 3.8	62.3 ± 23	35.7 ± 18
CCOP(=O)(OCC)Oc1nc(Cl)c(Cl)cc1Cl [Chlorpyrifos oxon]	–	1.69 ± 0.43	0.2 ± 0.14
CC(C)(C)C(=O)C(Oc1ccc(Cl)cc1)n1cncn1 (stereo not drawn) [Triadimefon]	1.51 ± 0.11	7.61 ± 4.6	6.93 ± 6.8
CC=O [Acetaldehyde]	> 100	> 100	> 100
CC(C)c1cccc(C(C)C)c1O [Propofol]	0.502 ± 0.076	> 100	–
CCCC(CCC)C(=O)O [Sodium valproate]	–	> 100	4.12
CC(C)(C)[C@H](O)[C@H](Cc1ccc(Cl)cc1)n1cncn1 (racemic) [Paclobutrazol]	0.339 ± 0.16	–	23.1 ± 21

SMILES	benchmark concentration [1] [µM]	benchmark concentration [2] [µM]	benchmark concentration [3] [µM]
Oc1cccc(O)c1 [Resorcinol]	> 100	> 100	> 100
C=C(C)[C@H]1Cc2c(ccc3c2O[C@@H]2COc4cc(OC)c(OC)cc4[C@@H]2C3=O)O1 [Rotenone]	–	< 1	0.194 ± 0.15
Oc1c(Cl)c(Cl)c(Cl)c(Cl)c1Cl [Pentachlorophenol]	0.257 ± 0.15	< 1	0.818 ± 0.49
Nc1ccc(Cl)c(Cl)c1 [3,4-Dichloroaniline]	7.8 ± 0.11	< 2	14 ± 4.4
CC(C)(c1cc(Br)c(O)c(Br)c1)c1cc(Br)c(O)c(Br)c1 [3,3',5,5'-Tetrabromobisphenol A]	1.39	2.97 ± 0.81	4.25 ± 0.23
Cl[C@H]1[C@H](Cl)[C@@H](Cl)[C@@H](Cl)[C@H](Cl)[C@H]1Cl [Lindane]	1.24 ± 0.5	35.6 ± 6.7	9.25 ± 4.2
CC(=O)Oc1ccccc1C(=O)O [Aspirin]	–	> 100	24.6 ± 18
O=C1CCC(N2C(=O)c3ccccc3C2=O)C(=O)N1 (stereo not drawn) [Thalidomide]	> 100	> 100	–
CCOP(=S)(OCC)Oc1nc(Cl)c(Cl)cc1Cl [Chlorpyrifos]	0.879 ± 0.45	63.7 ± 35	45.7
CNC(=O)O/N=C/C(C)(C)SC [Aldicarb]	0.926 ± 0.4	2.27 ± 0.83	1.94 ± 0.48
CN(C)C(=S)[S-].CN(C)C(=S)[S-].[Zn+2] [Ziram]	–	< 1	–
CON(C)C(=O)Nc1ccc(Cl)c(Cl)c1 [Linuron]	4.78 ± 0.21	19.5 ± 9.7	29.7 ± 14
Oc1cc(Cl)ccc1Oc1ccc(Cl)cc1Cl [Triclosan]	1.2 ± 0.34	3.62 ± 0.7	7.86 ± 5.5
c1ccc2c(c1)ccc1cc3c(ccc4ccccc43)cc12 [Dibenz(a,h)anthracene]	–	> 64	> 100
CC/C(=C(/CC)c1ccc(O)cc1)c1ccc(O)cc1 [Diethylstilbestrol]	0.547 ± 0.03	3.07 ± 0.69	3.37 ± 1.3
CCCC(CCC)C(=O)O [Valproic acid]	–	–	6 ± 7.4
CC[C@H](C)[C@H]1O[C@]2(C=C[C@@H]1C)C[C@@H]1C[C@@H](C/C=C(\C)[C@@H](O[C@H]3C[C@H](OC)[C@@H](O[C@H]4C[C@H](OC)[C@@H](O)[C@H](C)O4)[C@H](C)O3)[C@@H](C)/C=C/C=C3\CO[C@@H]4[C@H](O)C(C)=C[C@@H](C(=O)O1)[C@]34O)O2.CO[C@H]1C[C@H](O[C@H]2[C@H](C)O[C@@H](O[C@@H]3/C(C)=C/C[C@@H]4C[C@@H](C[C@]5(C=C[C@H](C)[C@@H](C(C)C)O5)O4)OC(=O)[C@@H]4C=C(C)[C@@H](O)[C@H]5OC/C(=C\C=C\[C@@H]3C)[C@]54O)C[C@@H]2OC)O[C@@H](C)[C@@H]1O [Abamectin]	–	–	0.436 ± 0.24
CCC[CH2][Sn]([CH2]CCC)([CH2]CCC)[O][Sn]([CH2]CCC)([CH2]CCC)[CH2]CCC [Bis(tributyltin)oxide]	0.0463 ± 0.0031	–	1.08 ± 0.52
CCOP(=S)(OCC)SCSCC [Phorate]	2.53 ± 1.7	> 100	–
